Source: ChEMBL document CHEMBL1909046, “DrugMatrix in vitro pharmacology data”

Key:
[1] = DRUGMATRIX: Imidazoline I2, Central radioligand binding (ligand: [3H] Idazoxan); type: cell membranes, Rattus norvegicus, Wistar, Cerebral cortex, Membrane; settings: Not Active = under 50% inhibition at 10 µM
[2] = molecular target: Beta-3 adrenergic receptor (Homo sapiens, UniProt P13945); experiment: DRUGMATRIX: Adrenergic beta3 radioligand binding (ligand: [125I] Cyanopindolol); type: cell membranes, Membrane; settings: hek293; Not Active = under 50% inhibition at 10 µM
Sequence of Beta-3 adrenergic receptor (P13945 whole entry): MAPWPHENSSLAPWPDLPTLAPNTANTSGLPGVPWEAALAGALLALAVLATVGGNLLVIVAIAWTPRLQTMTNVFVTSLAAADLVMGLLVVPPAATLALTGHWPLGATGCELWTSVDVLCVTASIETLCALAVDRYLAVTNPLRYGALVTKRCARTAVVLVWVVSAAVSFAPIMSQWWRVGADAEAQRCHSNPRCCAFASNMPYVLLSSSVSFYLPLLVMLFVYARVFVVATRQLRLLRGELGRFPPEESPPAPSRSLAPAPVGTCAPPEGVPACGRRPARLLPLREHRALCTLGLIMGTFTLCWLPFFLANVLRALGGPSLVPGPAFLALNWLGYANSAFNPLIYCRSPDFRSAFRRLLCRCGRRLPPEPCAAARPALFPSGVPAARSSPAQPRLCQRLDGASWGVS

[3] = DRUGMATRIX: Potassium Channel [KATP] radioligand binding (ligand: [3H] Glyburide); type: cell membranes, Membrane; settings: hit-t15; Not Active = under 50% inhibition at 10 µM
[4] = DRUGMATRIX: ATPase, Na+/K+ enzyme inhibition (substrate: ATP); type: tissue-based, Sus scrofa, Heart; settings: Not Active = under 50% inhibition at 10 µM
[5] = molecular target: Voltage-gated inwardly rectifying potassium channel KCNH2 (Homo sapiens, UniProt Q12809); settings: hek293; note: in other assays of this panel Not Active means under 50% inhibition at 10 µM
Sequence of Voltage-gated inwardly rectifying potassium channel KCNH2 (Q12809 whole entry): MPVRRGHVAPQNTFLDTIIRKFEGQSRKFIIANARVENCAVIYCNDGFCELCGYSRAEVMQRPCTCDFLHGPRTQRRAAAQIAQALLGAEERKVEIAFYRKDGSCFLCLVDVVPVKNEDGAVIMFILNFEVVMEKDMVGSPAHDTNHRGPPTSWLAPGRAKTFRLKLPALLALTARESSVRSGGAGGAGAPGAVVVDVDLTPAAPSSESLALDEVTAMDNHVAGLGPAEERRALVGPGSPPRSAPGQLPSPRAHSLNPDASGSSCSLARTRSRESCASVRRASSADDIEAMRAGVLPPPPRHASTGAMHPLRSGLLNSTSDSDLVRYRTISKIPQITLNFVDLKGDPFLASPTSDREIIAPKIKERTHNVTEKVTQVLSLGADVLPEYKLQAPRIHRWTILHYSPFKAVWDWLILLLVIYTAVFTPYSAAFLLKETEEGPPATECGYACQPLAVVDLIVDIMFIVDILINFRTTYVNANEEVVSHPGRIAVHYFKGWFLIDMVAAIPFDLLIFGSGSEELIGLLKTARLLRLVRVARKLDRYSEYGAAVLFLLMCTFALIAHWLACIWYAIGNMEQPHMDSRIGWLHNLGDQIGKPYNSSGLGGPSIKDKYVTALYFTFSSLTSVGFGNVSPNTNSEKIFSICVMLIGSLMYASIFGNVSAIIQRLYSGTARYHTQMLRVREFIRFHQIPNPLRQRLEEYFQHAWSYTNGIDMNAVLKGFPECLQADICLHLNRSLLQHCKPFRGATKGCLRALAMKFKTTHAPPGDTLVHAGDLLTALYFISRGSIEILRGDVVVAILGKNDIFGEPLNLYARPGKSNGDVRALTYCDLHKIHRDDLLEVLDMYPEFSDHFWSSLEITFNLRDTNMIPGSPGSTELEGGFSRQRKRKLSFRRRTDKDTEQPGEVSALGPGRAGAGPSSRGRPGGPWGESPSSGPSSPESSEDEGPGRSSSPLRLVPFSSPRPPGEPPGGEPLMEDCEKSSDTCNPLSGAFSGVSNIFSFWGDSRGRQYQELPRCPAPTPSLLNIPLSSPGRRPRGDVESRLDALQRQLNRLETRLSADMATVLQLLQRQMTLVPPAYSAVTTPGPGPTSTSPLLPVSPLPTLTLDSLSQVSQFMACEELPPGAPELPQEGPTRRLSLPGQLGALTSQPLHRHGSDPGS

[6] = molecular target: T1, Vasoactive intestinal polypeptide receptor 1 (Homo sapiens, UniProt P32241); type: cell membranes, Membrane; settings: ht-29; note: in other assays of this panel Not Active means under 50% inhibition at 10 µM
T1 sequence (P32241 whole entry): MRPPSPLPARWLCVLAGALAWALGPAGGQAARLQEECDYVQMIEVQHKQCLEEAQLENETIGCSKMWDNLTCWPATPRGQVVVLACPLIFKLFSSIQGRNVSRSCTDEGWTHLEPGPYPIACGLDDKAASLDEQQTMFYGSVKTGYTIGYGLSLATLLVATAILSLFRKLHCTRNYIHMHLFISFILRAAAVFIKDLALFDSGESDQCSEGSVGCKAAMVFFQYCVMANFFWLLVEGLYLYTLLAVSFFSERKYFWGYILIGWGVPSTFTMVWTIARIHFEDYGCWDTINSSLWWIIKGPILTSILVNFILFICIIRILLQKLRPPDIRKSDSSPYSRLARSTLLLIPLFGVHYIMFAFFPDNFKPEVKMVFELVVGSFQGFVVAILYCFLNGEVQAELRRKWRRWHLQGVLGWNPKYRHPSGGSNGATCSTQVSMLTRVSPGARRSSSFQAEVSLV

[7] = molecular target: Epidermal growth factor receptor (Homo sapiens, UniProt P00533); experiment: DRUGMATRIX: Protein Tyrosine Kinase, EGF Receptor enzyme inhibition (substrate: Poly(Glu:Tyr)); type: cell-based, Insect cells; settings: Not Active = under 50% inhibition at 10 µM

With `Cc1cc2cc3c(C)cc(=O)oc3c(C)c2o1` [TRIOXSALEN] the IC50 [1] was “Not Active”, the Ki [1] was “Not Active” and the IC50 [2] was “Not Active”. The IC50 [3] was “Not Active”, the Ki [3] was “Not Active” and the IC50 [4] was “Not Active”. The Ki [4] was “Not Active”, the IC50 [5] was “Not Active” and the Ki [5] was “Not Active”. The IC50 [6] was “Not Active” and the IC50 ([7]; insect cells) was “Not Active”.

For `Oc1ccc(OCc2ccccc2)cc1` [MONOBENZONE], the IC50 [1] was “Not Active”, the Ki [1] was “Not Active” and the IC50 [2] was “Not Active”. The IC50 [3] was “Not Active”, the Ki [3] was “Not Active” and the IC50 [4] was “Not Active”. The Ki [4] was “Not Active”, the IC50 [5] was “Not Active” and the Ki [5] was “Not Active”. For the same molecule, the IC50 [6] was “Not Active” and the IC50 ([7]; insect cells) was “Not Active”.

With `O=C1CC2(CCCC2)CC(=O)N1CCCCN1CCN(c2ncccn2)CC1` [BUSPIRONE] the IC50 [1] was “Not Active”, the Ki [1] was “Not Active” and the IC50 [2] was “Not Active”. The IC50 [3] was “Not Active”, the Ki [3] was “Not Active” and the IC50 [4] was “Not Active”. The Ki [4] was “Not Active”, the IC50 [5] was “Not Active” and the Ki [5] was “Not Active”. The IC50 [6] was “Not Active” and the IC50 ([7]; insect cells) was “Not Active”.

In the case of `COc1cccc2c1C(=O)c1c(O)c3c(c(O)c1C2=O)C[C@@](O)(C(=O)CO)C[C@@H]3O[C@H]1C[C@H](N)[C@@H](O)[C@H](C)O1` [EPIRUBICIN], the IC50 [1] is reported as “Not Active”, the Ki [1] is reported as “Not Active” and the IC50 [2] is reported as “Not Active”. For the same molecule, the IC50 [3] was “Not Active”, the Ki [3] was “Not Active” and the IC50 [4] was “Not Active”. The Ki [4] was “Not Active”, the IC50 [5] was “Not Active” and the Ki [5] was “Not Active”. The IC50 [6] was “Not Active” and the IC50 ([7]; insect cells) was “Not Active”.

For `C#C[C@]1(O)CC[C@H]2[C@@H]3CCc4cc(OC)ccc4[C@H]3CC[C@@]21C` [MESTRANOL], the IC50 [1] was “Not Active”, the Ki [1] was “Not Active” and the IC50 [2] was “Not Active”. For the same molecule, the IC50 [3] was “Not Active”, the Ki [3] was “Not Active” and the IC50 [4] was “Not Active”. For the same molecule, the Ki [4] was “Not Active”, the IC50 [5] was “Not Active” and the Ki [5] was “Not Active”. For the same molecule, the IC50 [6] was “Not Active” and the IC50 ([7]; insect cells) was “Not Active”.

In the case of `CN(C)c1ccc(C(=C2C=CC(=[N+](C)C)C=C2)c2ccc(N(C)C)cc2)cc1.[Cl-]` [GENTIAN VIOLET], the IC50 [1] is reported as “Not Active”, the Ki [1] is reported as “Not Active” and the IC50 [2] is reported as “Not Active”. For the same molecule, the IC50 [3] was “Not Active”, the Ki [3] was “Not Active” and the IC50 [4] was “Not Active”. For the same molecule, the Ki [4] was “Not Active”, the IC50 [5] was “Not Active” and the Ki [5] was “Not Active”. The IC50 [6] was “Not Active” and the IC50 ([7]; read-out: IC50) was 473 nM.

In the case of `CC(=O)Nc1ccc(O)cc1` [ACETAMINOPHEN], the IC50 [1] is reported as “Not Active”, the Ki [1] is reported as “Not Active” and the IC50 [2] is reported as “Not Active”. For the same molecule, the IC50 [3] was “Not Active”, the Ki [3] was “Not Active” and the IC50 [4] was “Not Active”. The Ki [4] was “Not Active”, the IC50 [5] was “Not Active” and the Ki [5] was “Not Active”. The IC50 [6] was “Not Active” and the IC50 ([7]; insect cells) was “Not Active”.

For `CCCCN1CCCCC1C(=O)Nc1c(C)cccc1C.Cl` (stereo not drawn) [BUPIVACAINE HYDROCHLORIDE], the IC50 [1] was “Not Active”, the Ki [1] was “Not Active” and the IC50 [2] was “Not Active”. For the same molecule, the IC50 [3] was “Not Active”, the Ki [3] was “Not Active” and the IC50 [4] was “Not Active”. The Ki [4] was “Not Active”, the IC50 [5] was “Not Active” and the Ki [5] was “Not Active”. For the same molecule, the IC50 [6] was “Not Active” and the IC50 ([7]; insect cells) was “Not Active”.

In the case of `Nc1ccn([C@@H]2CS[C@H](CO)O2)c(=O)n1` [LAMIVUDINE], the IC50 [1] is reported as “Not Active”, the Ki [1] is reported as “Not Active” and the IC50 [2] is reported as “Not Active”. The IC50 [3] was “Not Active”, the Ki [3] was “Not Active” and the IC50 [4] was “Not Active”. For the same molecule, the Ki [4] was “Not Active”, the IC50 [5] was “Not Active” and the Ki [5] was “Not Active”. For the same molecule, the IC50 [6] was “Not Active” and the IC50 ([7]; insect cells) was “Not Active”.

For `COP(=O)(OC)OC=C(Cl)Cl` [DICHLORVOS], the IC50 [1] was “Not Active”, the Ki [1] was “Not Active” and the IC50 [2] was “Not Active”. For the same molecule, the IC50 [3] was “Not Active”, the Ki [3] was “Not Active” and the IC50 [4] was “Not Active”. For the same molecule, the Ki [4] was “Not Active”, the IC50 [5] was “Not Active” and the Ki [5] was “Not Active”. For the same molecule, the IC50 [6] was “Not Active” and the IC50 ([7]; insect cells) was “Not Active”.

For CADMIUM DICHLORIDE, the IC50 [1] was “Not Active”, the Ki [1] was “Not Active” and the IC50 [2] was “Not Active”. For the same molecule, the Ki [2] was “Not Active”, the IC50 [3] was “Not Active” and the Ki [3] was “Not Active”. For the same molecule, the IC50 [4] was “Not Active”, the Ki [4] was “Not Active” and the IC50 [5] was “Not Active”. The Ki [5] was “Not Active”, the IC50 [6] was “Not Active” and the Ki [6] was “Not Active”. The IC50 ([7]; insect cells, read-out: IC50) was 486 nM.
